From article PMC4965148 (PLoS ONE, 2016)
Read-outs that look alike come from different tables or passages of the source.

Experiments:
rat α3β4 nAChR = biological target: T1, rat α3β4 nAChR (Rattus norvegicus, UniProt P04757+P12392); assay: Ca2+ flux (FLIPR) agonist/antagonist assay; type: cell-based; details: FLIPR antagonist mode, EC90 ACh
T1 construct: expressed in transfected cells; host or cells: HEK293 (made by Bristol-Myers Squibb)

C57Bl/6 mice = assay: Mouse 24 h novel object recognition; type: in vivo
Protocol: The procedure followed a 3 day protocol. On day 1 (habituation) individual mice were habituated to the testing chamber (a white PVC box 48 cm long x 38 cm wide x 20 cm high with brown linoleum flooring) for 15 min then returned to their home cage. On day 2 (training) individual mice were returned to the testing chamber containing 2 identical objects and allowed to explore. The training session lasted for up to 15 min or until the mouse explored the objects for a total of 60 s. A maximal trial duration of 15 min was used to accommodate mice that are slower to initiate exploration. On day 3 (testing) individual mice were returned to the testing chamber 24 h later containing 1 familiar object encountered in the previous training session and one novel object. The testing session lasted up to 10 min or until the mouse explored the objects for a total of 60 s. The objects used for these studies were made of duplex legos approximately 3 inches high x 1 inch wide; one object was a multicolored rectangle and the second object was a solid color rectangle with a short arm attached. The location of the objects was counterbalanced between animals but was consistent within animals so that only the object itself was novel on the test session. The familiar object used during the test session was the same object used during training and all objects were thoroughly cleaned between sessions and between subjects. Animal behavior was video recorded during both training and testing and the amount of time spent exploring the objects determined using Cleversys software. Object exploration was only scored when the animal’s nose was within 1 cm of the object. […] The vehicle was chosen for sc dosing to ensure that BMS-933043 was dosed as a solution and not a suspension. […] For each subject the % discrimination index (DI) was calculated for both the training and test session as follows: %DI training = (time exploring object 1—time exploring object 2)/(total time exploring object 1 + object 2) X 100; %DI testing = (time exploring novel object—time exploring familiar object)/(total time exploring novel + familiar object) X 100.

MK-801 treated mice = assay: Mouse MK-801 two trial Y maze; type: in vivo
Protocol: Testing was conducted in a grey polyethylene plastic Y maze that had 3 arms, 2 of 40 cm length (test arms) and 1 of 20 cm length (start arm). Each arm had distinct optical cues covering the walls and a removable partition to occlude the arm as needed. The test consisted of a forced choice trial followed by a free-choice trial. For the forced choice trial the start arm and one test arm was open with access to the 2nd test arm blocked by the partition. Individual subjects were placed in the start arm and allowed to explore the open test arm for 8 min after which they were removed from the maze, placed in a holding cage and the maze was cleaned. Animals were then immediately placed back on the Y maze for the free choice trial and allowed to explore both open test arms for 4 min. The protocol was thus designed for minimal delay between the forced choice and free choice trials. […] For each subject the % time exploring the novel arm during the free choice trial was calculated using the formula: % novel time = novel time/(novel + familiar time) x 100.

[1] = Plasma and brain concentrations after dosing; type: in vivo, mouse; details: for Brain Mean ± SD / concentration at 30 min / Kp at 30 min: 30 min; for concentration at 60 min: sc, Mouse MK-801 Y Maze
Protocol: Occupancy determinations were made either on completion of behavioral testing or in satellite groups of animals dosed in parallel with behavioral testing. At specified time points after dosing, the forebrain (for occupancy), the remaining hindbrain (for brain drug exposure) and plasma were collected, frozen in chilled isopentane and stored at -80°C until assayed. […] Homogenized tissue aliquots were frozen immediately and stored at -80°C. […] Non-specific binding was defined by adding 25 μM MLA to wells containing tissues from vehicle-treated animals. […] The filters were washed with ice-cold assay buffer, punched into a clear plate and 200 μl scintillation fluid added per well. Bound radioactivity was measured using a Wallac Microbeta liquid scintillation counter. Specific binding was calculated by subtracting the value of the non-specific binding from that of the total binding in each sample. The percent occupancy was calculated as [1 –(specific binding in drug treated mice/specific binding in vehicle treated mice)] x 100.
In brief, 50 μL of the plasma sample was extracted by protein precipitation with 150 μL acetonitrile containing an internal standard and 5 μL of supernatant injected into the LC-MS/MS system. Analytes were separated by reversed phase chromatography and detection of each analyte was achieved through selected reaction monitoring mode of mass spectrometry.

Androgen receptor = Androgen receptor (Rattus norvegicus, UniProt P15207); assay: Selectivity panel, binding
Sequence of Androgen receptor (P15207 whole entry S389L): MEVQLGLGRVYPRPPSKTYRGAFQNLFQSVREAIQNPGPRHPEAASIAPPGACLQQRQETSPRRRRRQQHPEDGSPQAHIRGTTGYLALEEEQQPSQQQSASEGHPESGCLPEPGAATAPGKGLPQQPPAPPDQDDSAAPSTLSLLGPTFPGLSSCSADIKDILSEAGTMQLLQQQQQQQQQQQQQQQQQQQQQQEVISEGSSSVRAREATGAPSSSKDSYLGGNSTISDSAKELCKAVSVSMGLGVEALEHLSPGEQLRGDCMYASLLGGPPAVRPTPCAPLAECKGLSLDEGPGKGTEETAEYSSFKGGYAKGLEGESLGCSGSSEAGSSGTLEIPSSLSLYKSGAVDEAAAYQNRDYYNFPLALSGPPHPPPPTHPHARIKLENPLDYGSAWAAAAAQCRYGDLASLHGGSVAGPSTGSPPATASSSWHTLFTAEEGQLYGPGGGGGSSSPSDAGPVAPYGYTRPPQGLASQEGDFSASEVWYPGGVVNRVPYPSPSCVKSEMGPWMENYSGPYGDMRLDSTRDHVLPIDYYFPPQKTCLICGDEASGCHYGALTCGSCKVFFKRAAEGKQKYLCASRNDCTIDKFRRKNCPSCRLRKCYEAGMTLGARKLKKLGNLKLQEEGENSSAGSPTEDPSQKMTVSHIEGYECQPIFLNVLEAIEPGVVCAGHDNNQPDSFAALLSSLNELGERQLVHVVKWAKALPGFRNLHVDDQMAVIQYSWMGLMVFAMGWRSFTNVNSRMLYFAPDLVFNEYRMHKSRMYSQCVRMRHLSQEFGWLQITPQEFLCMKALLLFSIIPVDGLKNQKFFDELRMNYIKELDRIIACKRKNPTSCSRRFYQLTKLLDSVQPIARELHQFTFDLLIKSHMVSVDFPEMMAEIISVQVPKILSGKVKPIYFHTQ

Dopamine transporter = Dopamine transporter (Homo sapiens, UniProt Q01959); assay: Selectivity panel, binding
Sequence of Dopamine transporter (Q01959 whole entry): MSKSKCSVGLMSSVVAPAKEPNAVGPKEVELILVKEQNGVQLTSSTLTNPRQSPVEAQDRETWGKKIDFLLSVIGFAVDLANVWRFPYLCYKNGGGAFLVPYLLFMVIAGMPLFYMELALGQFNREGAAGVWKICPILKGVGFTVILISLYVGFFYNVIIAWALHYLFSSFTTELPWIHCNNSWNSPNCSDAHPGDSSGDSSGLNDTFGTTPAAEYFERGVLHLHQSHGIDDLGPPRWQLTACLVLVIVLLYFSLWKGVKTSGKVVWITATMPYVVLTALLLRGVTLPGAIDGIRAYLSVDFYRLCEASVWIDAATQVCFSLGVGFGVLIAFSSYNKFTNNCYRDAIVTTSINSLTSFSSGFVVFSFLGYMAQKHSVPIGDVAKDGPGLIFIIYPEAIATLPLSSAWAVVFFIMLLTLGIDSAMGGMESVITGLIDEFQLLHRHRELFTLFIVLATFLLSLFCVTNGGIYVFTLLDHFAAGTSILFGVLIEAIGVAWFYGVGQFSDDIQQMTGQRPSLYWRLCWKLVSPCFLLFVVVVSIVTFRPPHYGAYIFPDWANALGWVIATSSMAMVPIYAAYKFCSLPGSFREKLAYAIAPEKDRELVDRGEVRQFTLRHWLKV

GABA-A α1β2γ2 = GABA-A α1β2γ2 (Homo sapiens, UniProt P14867+P18507+P47870); assay: Selectivity panel, functional; type: cell-based
Sequence of GABA-A α1β2γ2 (P14867 28-456): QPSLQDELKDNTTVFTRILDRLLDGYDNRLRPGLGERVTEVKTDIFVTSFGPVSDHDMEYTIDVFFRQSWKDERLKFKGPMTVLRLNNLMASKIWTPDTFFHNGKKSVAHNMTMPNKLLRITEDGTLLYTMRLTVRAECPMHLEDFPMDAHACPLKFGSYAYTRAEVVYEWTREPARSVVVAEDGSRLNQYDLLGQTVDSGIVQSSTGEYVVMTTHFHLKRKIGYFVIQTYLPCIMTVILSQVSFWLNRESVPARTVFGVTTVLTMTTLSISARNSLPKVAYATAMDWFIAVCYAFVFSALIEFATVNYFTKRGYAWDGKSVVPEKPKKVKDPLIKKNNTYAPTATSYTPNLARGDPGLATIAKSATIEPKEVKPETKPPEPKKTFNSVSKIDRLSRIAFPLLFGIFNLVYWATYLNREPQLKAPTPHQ
Sequence of GABA-A α1β2γ2 (P47870 25-512 limits assumed): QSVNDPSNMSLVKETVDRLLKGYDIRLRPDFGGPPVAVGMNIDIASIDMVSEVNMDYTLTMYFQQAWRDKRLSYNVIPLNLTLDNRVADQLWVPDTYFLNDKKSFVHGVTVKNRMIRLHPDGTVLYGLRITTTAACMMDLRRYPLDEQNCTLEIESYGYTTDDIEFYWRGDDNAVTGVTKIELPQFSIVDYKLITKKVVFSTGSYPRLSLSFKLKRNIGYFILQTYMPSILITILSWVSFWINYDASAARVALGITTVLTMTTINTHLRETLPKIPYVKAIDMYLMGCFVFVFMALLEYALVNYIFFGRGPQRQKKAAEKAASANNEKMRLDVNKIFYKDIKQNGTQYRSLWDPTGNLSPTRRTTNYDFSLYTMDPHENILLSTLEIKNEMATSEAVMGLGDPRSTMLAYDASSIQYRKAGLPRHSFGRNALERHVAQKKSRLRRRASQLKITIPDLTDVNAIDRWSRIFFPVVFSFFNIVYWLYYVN
Sequence of GABA-A α1β2γ2 (P18507 40-475): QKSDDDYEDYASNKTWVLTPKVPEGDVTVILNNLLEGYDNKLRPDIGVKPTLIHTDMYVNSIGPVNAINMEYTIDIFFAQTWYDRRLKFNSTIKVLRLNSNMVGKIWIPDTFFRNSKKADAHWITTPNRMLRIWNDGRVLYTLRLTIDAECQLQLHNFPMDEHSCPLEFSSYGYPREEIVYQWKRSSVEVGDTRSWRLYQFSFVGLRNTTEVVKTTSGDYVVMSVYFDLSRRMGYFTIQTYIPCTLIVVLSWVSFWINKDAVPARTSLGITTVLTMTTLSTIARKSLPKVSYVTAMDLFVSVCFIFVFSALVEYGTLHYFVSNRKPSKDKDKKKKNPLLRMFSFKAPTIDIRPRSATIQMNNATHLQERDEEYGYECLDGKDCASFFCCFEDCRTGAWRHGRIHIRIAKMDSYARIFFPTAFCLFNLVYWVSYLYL

Histamine H1 = Histamine H1 (Homo sapiens, UniProt P35367); assay: Selectivity panel, binding
Histamine H2 = Histamine H2 (Homo sapiens, UniProt P25021); assay: Selectivity panel, binding
Sequence of Histamine H2 (P25021 whole entry): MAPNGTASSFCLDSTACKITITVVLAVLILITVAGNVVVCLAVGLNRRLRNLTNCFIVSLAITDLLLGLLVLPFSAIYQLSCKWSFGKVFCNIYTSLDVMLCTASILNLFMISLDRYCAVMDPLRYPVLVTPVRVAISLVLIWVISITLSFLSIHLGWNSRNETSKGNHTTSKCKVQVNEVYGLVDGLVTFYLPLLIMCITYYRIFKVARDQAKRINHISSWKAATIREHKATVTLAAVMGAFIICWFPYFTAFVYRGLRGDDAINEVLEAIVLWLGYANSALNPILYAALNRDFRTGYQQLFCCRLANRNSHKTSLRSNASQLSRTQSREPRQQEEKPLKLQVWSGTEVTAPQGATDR

Opiate Mu = Opiate Mu (Homo sapiens, UniProt P35372); assay: Selectivity panel, binding
Sequence of Opiate Mu (P35372 whole entry): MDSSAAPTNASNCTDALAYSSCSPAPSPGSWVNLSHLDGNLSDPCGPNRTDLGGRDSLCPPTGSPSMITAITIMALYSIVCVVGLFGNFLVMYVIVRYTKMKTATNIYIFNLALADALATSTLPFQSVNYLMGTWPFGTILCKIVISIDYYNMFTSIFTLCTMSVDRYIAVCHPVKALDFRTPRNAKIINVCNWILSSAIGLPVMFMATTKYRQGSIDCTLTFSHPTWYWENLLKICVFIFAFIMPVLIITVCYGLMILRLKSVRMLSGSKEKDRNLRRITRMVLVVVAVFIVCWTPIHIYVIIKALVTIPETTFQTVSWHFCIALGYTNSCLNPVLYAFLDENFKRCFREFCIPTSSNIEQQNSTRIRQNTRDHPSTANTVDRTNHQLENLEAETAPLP

Opiate Kappa = Opiate Kappa (Homo sapiens, UniProt P41145); assay: Selectivity panel, binding
Sequence of Opiate Kappa (P41145 whole entry): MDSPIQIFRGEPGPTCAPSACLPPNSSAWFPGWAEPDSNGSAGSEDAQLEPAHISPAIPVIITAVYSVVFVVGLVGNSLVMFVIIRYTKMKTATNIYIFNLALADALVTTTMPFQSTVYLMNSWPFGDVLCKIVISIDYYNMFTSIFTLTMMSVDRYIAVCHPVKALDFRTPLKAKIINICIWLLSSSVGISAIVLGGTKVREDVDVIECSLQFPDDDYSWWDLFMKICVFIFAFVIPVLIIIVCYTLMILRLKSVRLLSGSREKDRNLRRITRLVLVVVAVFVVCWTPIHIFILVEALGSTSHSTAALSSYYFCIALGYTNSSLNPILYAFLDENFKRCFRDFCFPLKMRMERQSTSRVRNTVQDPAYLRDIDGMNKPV

5-HT1A = 5-HT1A (Homo sapiens, UniProt P08908); assay: Selectivity panel, binding; details: read-out: % inhibition @ 10 µM
Sequence of 5-HT1A (P08908 whole entry): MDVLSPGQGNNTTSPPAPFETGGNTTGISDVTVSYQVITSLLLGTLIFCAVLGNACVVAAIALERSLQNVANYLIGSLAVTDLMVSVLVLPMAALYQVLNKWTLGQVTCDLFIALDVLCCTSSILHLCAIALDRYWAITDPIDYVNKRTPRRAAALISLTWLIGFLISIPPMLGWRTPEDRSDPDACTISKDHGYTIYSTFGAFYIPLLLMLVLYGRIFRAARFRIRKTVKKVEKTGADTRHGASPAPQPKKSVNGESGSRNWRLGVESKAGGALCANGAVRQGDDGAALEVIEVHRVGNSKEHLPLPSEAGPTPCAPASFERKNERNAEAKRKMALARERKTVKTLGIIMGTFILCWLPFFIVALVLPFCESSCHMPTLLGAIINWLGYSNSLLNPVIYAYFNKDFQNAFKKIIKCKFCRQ

5-HT2A = 5-HT2A (Homo sapiens, UniProt P28223); assay: Selectivity panel, functional; type: cell-based
Sequence of 5-HT2A (P28223 whole entry): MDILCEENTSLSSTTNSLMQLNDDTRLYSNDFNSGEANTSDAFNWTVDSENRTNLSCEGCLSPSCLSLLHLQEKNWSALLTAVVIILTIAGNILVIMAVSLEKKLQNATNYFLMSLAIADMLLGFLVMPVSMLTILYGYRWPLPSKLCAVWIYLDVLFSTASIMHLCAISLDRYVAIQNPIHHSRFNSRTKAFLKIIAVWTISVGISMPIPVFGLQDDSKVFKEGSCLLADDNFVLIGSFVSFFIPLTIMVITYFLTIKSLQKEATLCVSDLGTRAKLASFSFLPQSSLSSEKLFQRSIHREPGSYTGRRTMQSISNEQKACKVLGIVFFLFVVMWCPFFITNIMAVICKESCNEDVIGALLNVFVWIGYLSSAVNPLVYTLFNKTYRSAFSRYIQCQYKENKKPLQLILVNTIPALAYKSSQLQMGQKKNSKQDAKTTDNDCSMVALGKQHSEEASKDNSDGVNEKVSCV

c1cn(-c2cc(NC3=NC[C@@]4(CN5CCC4CC5)O3)ncn2)cn1 [BMS-933043, (2R)-N-(6-(1H-imidazol-1-yl)-4-pyrimidinyl)-4'H-spiro[4-azabicyclo[2.2.2]octane-2,5'-[1,3]oxazol]-2'-amine]
IC50 (rat α3β4 nAChR): > 30 µM
total object exploration time in training or testing session (C57Bl/6 mice; mice): does not alter total object exploration time
effective dose range, 24 h novel object recognition (C57Bl/6 mice; sc, 30 min prior to training): 0.1 to 10 mg/kg
time spent in the novel arm in MK-801-treated mice (MK-801 treated mice; doses of 1, 3 and 10 mg/kg sc): significantly increased time spent in the novel arm
Active dose range, MK-801 Y maze (MK-801 treated mice; sc): 1–10 (sc) mg/kg
Brain Mean ± SD ([1]; Mouse NOR (0.03-1 mg/kg study), 0.03 mg/kg sc): < LLQ
Brain Mean ± SD ([1]; Mouse NOR (0.03-1 mg/kg study), 0.10 mg/kg sc): < LLQ
concentration at 30 min ([1]; mouse, brain, subcutaneous, 0.3 mg/kg, Mouse NOR (0.03-1 mg/kg study), 0.30 mg/kg sc, read-out: Brain Mean ± SD): 24 ± 3.9 nM
concentration at 30 min ([1]; mouse, brain, subcutaneous, 1 mg/kg, Mouse NOR (0.03-1 mg/kg study), 1 mg/kg sc, read-out: Brain Mean ± SD): 78 ± 5.2 nM
concentration at 30 min ([1]; mouse, brain, subcutaneous, 1 mg/kg, Mouse NOR (1-10 mg/kg study), 1 mg/kg sc, read-out: Brain Mean ± SD): 97 ± 16 nM
concentration at 30 min ([1]; mouse, brain, subcutaneous, 3 mg/kg, Mouse NOR (1-10 mg/kg study), 3 mg/kg sc, read-out: Brain Mean ± SD): 297 ± 48 nM
concentration at 30 min ([1]; mouse, brain, subcutaneous, 10 mg/kg, Mouse NOR (1-10 mg/kg study), 10 mg/kg sc, read-out: Brain Mean ± SD): 1110 nM
Kp at 30 min ([1]; mouse, brain/plasma, subcutaneous, 0.3 mg/kg, Mouse NOR (0.03-1 mg/kg study), 0.30 mg/kg sc): 0.12
Kp at 30 min ([1]; mouse, brain/plasma, subcutaneous, 1 mg/kg, Mouse NOR (0.03-1 mg/kg study), 1 mg/kg sc): 0.11
Kp at 30 min ([1]; mouse, brain/plasma, subcutaneous, 1 mg/kg, Mouse NOR (1-10 mg/kg study), 1 mg/kg sc): 0.21
Kp at 30 min ([1]; mouse, brain/plasma, subcutaneous, 3 mg/kg, Mouse NOR (1-10 mg/kg study), 3 mg/kg sc): 0.19
Kp at 30 min ([1]; mouse, brain/plasma, subcutaneous, 10 mg/kg, Mouse NOR (1-10 mg/kg study), 10 mg/kg sc): 0.2
Kp ([1]; mouse, brain/plasma, subcutaneous, mice, read-out: average brain/plasma): 0.17
concentration at 60 min ([1]; mouse, plasma, 0.03 mg/kg, 0.03 mg/kg sc, read-out: Plasma Mean ± SD): 5 ± 0.4 nM
concentration at 60 min ([1]; mouse, plasma, 0.1 mg/kg, 0.10 mg/kg sc, read-out: Plasma Mean ± SD): 21 ± 2.4 nM
concentration at 60 min ([1]; mouse, plasma, 0.3 mg/kg, 0.30 mg/kg sc, read-out: Plasma Mean ± SD): 94 ± 19 nM
concentration at 60 min ([1]; mouse, plasma, 1 mg/kg, 1 mg/kg sc, read-out: Plasma Mean ± SD): 254 ± 32 nM
concentration at 60 min ([1]; mouse, plasma, 3 mg/kg, 3 mg/kg sc, read-out: Plasma Mean ± SD): 774 ± 282 nM
concentration at 60 min ([1]; mouse, plasma, 10 mg/kg, 10 mg/kg sc, read-out: Plasma Mean ± SD): 2980 nM
concentration at 30 min ([1]; mouse, plasma, subcutaneous, 0.03 mg/kg, Mouse NOR (0.03-1 mg/kg study), 0.03 mg/kg sc, read-out: Plasma Mean ± SD): 14 ± 2.7 nM
concentration at 30 min ([1]; mouse, plasma, subcutaneous, 0.1 mg/kg, Mouse NOR (0.03-1 mg/kg study), 0.10 mg/kg sc, read-out: Plasma Mean ± SD): 52 ± 3.6 nM
concentration at 30 min ([1]; mouse, plasma, subcutaneous, 0.3 mg/kg, Mouse NOR (0.03-1 mg/kg study), 0.30 mg/kg sc, read-out: Plasma Mean ± SD): 213 ± 49 nM
concentration at 30 min ([1]; mouse, plasma, subcutaneous, 1 mg/kg, Mouse NOR (0.03-1 mg/kg study), 1 mg/kg sc, read-out: Plasma Mean ± SD): 719 ± 69 nM
concentration at 30 min ([1]; mouse, plasma, subcutaneous, 1 mg/kg, Mouse NOR (1-10 mg/kg study), 1 mg/kg sc, read-out: Plasma Mean ± SD): 459 ± 59 nM
concentration at 30 min ([1]; mouse, plasma, subcutaneous, 3 mg/kg, Mouse NOR (1-10 mg/kg study), 3 mg/kg sc, read-out: Plasma Mean ± SD): 1570 nM
concentration at 30 min ([1]; mouse, plasma, subcutaneous, 10 mg/kg, Mouse NOR (1-10 mg/kg study), 10 mg/kg sc, read-out: Plasma Mean ± SD): 5560 nM
IC50 (Androgen receptor): > 150 µM
IC50 (Dopamine transporter): > 30 µM
IC50 (GABA-A α1β2γ2): > 30 µM
IC50 (Histamine H1): > 30 µM
IC50 (Histamine H2): > 30 µM
IC50 (Opiate Mu): > 30 µM
IC50 (Opiate Kappa): > 30 µM
inhibition at 10 µM (5-HT1A): 9%
EC50 (5-HT2A): > 10 µM
